Laboratory results from ChEMBL document CHEMBL5653631, “A Potent and Selective ULK1 Inhibitor Suppresses Autophagy and Sensitizes Cancer Cells to Nutrient Stress” (iScience, 2018).

Assays:
[1] = target: Cyclin-dependent kinase 1 (Homo sapiens) (UniProt P06493); test: Inhibition of human recombinant CDC2 at 40 nM related to control ULK1
[2] = target: Myosin light chain kinase 2, skeletal/cardiac muscle (Homo sapiens) (UniProt Q9H1R3); test: Inhibition of human recombinant skMLCK at 40 nM related to control ULK1
[3] = target: T1, cGMP-dependent protein kinase 1 (Homo sapiens) (UniProt Q13976); test: Inhibition of human recombinant PKG1 at 40 nM related to control ULK1
T1 sequence (whole entry): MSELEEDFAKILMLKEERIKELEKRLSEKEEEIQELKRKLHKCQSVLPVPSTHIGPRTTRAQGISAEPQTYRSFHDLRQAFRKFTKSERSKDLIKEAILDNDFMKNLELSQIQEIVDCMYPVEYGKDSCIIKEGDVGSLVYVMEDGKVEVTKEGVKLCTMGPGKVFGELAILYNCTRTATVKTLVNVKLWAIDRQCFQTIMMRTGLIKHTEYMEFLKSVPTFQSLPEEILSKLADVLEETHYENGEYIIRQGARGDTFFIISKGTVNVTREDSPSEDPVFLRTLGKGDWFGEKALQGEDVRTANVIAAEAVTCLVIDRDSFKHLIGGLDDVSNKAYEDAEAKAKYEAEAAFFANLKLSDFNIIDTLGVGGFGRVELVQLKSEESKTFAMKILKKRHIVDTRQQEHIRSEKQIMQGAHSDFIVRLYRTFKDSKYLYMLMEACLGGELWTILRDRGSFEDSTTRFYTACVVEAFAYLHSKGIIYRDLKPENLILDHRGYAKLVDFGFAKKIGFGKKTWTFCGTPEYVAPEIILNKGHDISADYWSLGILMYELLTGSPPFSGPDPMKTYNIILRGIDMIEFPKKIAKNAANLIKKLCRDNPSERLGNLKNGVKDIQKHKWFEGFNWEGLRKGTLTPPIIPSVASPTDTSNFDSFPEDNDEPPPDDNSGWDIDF

[4] = target: T2, Testis-specific serine/threonine-protein kinase 4 (Homo sapiens) (UniProt Q6SA08); test: Inhibition of human recombinant TSSK4 at 40 nM in presence of ATP by radiometric assay relative to control
T2 sequence (whole entry): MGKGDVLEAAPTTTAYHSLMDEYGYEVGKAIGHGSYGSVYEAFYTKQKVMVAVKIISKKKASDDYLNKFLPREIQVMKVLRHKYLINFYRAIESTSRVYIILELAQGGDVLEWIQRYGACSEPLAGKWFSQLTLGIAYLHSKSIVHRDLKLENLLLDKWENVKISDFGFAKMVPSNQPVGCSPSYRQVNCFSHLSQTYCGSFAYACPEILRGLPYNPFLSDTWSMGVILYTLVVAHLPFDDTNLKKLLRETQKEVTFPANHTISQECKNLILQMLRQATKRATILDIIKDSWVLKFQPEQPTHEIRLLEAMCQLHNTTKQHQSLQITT

[5] = target: Protein kinase C iota type (Homo sapiens) (UniProt P41743); test: Inhibition of human recombinant PKCi at 15 nM related to control ULK1
[6] = target: Protein kinase C eta type (Homo sapiens) (UniProt P24723); test: Inhibition of human recombinant PKCH at 15 nM in presence of ATP by radiometric assay relative to control
[7] = target: eIF-2-alpha kinase GCN2 (Homo sapiens) (UniProt Q9P2K8); test: Inhibition of human recombinant GCN2 at 15 nM related to control ULK1
[8] = target: Activin receptor type-2A (Homo sapiens) (UniProt P27037); test: Inhibition of human recombinant ACTR2 at 15 nM in presence of ATP by radiometric assay relative to control
[9] = target: Cyclin-dependent kinase 18 (Homo sapiens) (UniProt Q07002); test: Inhibition of human recombinant PCTAIRE3 at 15 nM in presence of ATP by radiometric assay relative to control
[10] = target: cAMP-dependent protein kinase catalytic subunit beta (Homo sapiens) (UniProt P22694); test: Inhibition of human recombinant PKACbeta at 15 nM in presence of ATP by radiometric assay relative to control
[11] = target: Protein kinase C delta type (Homo sapiens) (UniProt Q05655); test: Inhibition of human recombinant PKCd at 15 nM related to control ULK1
[12] = target: Serine/threonine-protein kinase MRCK beta (Homo sapiens) (UniProt Q9Y5S2); test: Inhibition of human recombinant MRCKb at 15 nM in presence of ATP by radiometric assay relative to control
[13] = target: Serine/threonine-protein kinase NIM1 (Homo sapiens) (UniProt Q8IY84); test: Inhibition of human recombinant NIM1 at 15 nM related to control ULK1
[14] = target: Calcium/calmodulin-dependent protein kinase kinase 2 (Homo sapiens) (UniProt Q96RR4); test: Inhibition of human recombinant CaMKK2 at 15 nM related to control ULK1
[15] = target: Wee1-like protein kinase 2 (Homo sapiens) (UniProt P0C1S8); test: Inhibition of human recombinant Wee1B at 15 nM related to control ULK1
[16] = target: Tyrosine-protein kinase Fer (Homo sapiens) (UniProt P16591); test: Inhibition of human recombinant FER at 500 nM related to control ULK1
[17] = target: Cyclin-dependent kinase 2 (Homo sapiens) (UniProt P24941); test: Inhibition of human recombinant CDK2 at 500 nM in presence of ATP by radiometric assay relative to control
[18] = target: Misshapen-like kinase 1 (Homo sapiens) (UniProt Q8N4C8); test: Inhibition of human recombinant MINK at 500 nM related to control ULK1
[19] = target: T3, Serine/threonine-protein kinase 17B (Homo sapiens) (UniProt O94768); test: Inhibition of human recombinant DRAK2 at 500 nM related to control ULK1
T3 sequence (whole entry): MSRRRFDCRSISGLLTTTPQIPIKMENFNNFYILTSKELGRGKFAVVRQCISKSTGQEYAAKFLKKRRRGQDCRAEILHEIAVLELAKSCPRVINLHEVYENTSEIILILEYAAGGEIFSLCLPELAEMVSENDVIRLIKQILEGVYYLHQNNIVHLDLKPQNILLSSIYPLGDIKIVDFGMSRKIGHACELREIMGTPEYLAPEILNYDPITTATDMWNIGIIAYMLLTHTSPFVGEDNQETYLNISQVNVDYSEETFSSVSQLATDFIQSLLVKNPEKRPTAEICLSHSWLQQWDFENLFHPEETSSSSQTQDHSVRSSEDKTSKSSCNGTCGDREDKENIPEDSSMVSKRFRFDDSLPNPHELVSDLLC

[20] = target: Calcium/calmodulin-dependent protein kinase type II subunit beta (Homo sapiens) (UniProt Q13554); test: Inhibition of human recombinant CaMK2b at 500 nM in presence of ATP by radiometric assay relative to control

A fold change (FC) [1] of 0.62, a fold change (FC) [2] of 0 and a fold change (FC) [3] of 0.08 were found for `O=C(N[C@@H](C1CC1)C(F)(F)F)c1cc(-c2cnn3cc(-c4ccc(F)cc4)cnc23)cs1` in this work. It also gave an inhibition [4] of 0%.

A fold change (FC) [5] of 0.05, an inhibition [6] of 0% and a fold change (FC) [7] of 0.09 were found for `CC(C)[C@H](NC(=O)c1cc(-c2cnn3cc(-c4ccc(OCCN5CCCCC5)cc4)cnc23)cs1)C(F)(F)F` in this work. For the same compound, the inhibition [8] was 4%, the inhibition [9] was 67% and the inhibition [10] was 0%. It also gave a fold change (FC) [11] of 0, an inhibition [12] of 6% and a fold change (FC) [13] of 0.07. The fold change (FC) [14] was 0.01 and the fold change (FC) [15] was 0.13.

A fold change (FC) [16] of 0, an inhibition [17] of 4% and a fold change (FC) [18] of 0.05 were found for `CNC(=O)c1ccccc1Oc1nc(Nc2cc(OC)c(OC)c(OC)c2)ncc1Br` in this work. The fold change (FC) [19] was 0.08 and the inhibition [20] was 0%.
